“Also recorded” adds a separate entry of the source. Where two headings read alike, the source gives them in different places. *1 amine or outer side, *2 acyl side, *3 side chain or, on linkers, in order; H or OH if unused. Where a SMILES comes first, the peptide text is derived from it. The star is where a group is joined. AMC = Cc1cc(=O)oc2cc(N*)ccc12; Suc = O=C(CCC(=O)[*:2])[*:1]; Boc = CC(C)(C)OC(=O)*; CO = O=C([*:1])[*:2]
Tests used:
[1] = biological target: T1, trypsin-like enzyme (Homo sapiens, UniProt O60235); assay: Substrate specificity, synthetic MCA substrates (assay method of trypsin activity); type: biochemical; settings: pH 8.6, 0.1M Tris-HCl; activity on Boc-Phe-Ser-Arg-MCA taken to be 100%
T1 construct: from tissue; host or cells: cough phlegm (sputum) of patients with chronic disease of the respiratory tract

[2] = biological target: T2, human neutrophile elastase (Homo sapiens, UniProt P08246); assay: Substrate specificity, synthetic MCA substrates; type: biochemical
T2 sequence (P08246 30-267): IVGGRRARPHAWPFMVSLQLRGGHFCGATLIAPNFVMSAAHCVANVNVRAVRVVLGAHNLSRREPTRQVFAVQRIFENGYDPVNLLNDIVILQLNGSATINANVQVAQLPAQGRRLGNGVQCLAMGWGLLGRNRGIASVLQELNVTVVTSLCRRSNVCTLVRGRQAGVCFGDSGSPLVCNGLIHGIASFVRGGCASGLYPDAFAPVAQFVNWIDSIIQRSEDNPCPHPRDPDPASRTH

[3] = tested on: rat mast cell-derived tryptase; assay: Substrate specificity, synthetic MCA substrates; type: biochemical; settings: activity on Suc-Phe-Ser-Arg-MCA taken to be 100%
[4] = biological target: Boc-Gln-Ala-Arg-MCA
[5] = biological target: Boc-Gln-Gly-Arg-MCA
[6] = biological target: Boc-Ile-Gln-Gly-Arg-MCA
[7] = biological target: Boc-Phe-Ser-Arg-MCA
[8] = biological target: Boc-Val-Leu-Lys-MCA
[9] = biological target: Boc-Val-Pro-Arg-MCA
[10] = biological target: Suc-Ala-Ala-Pro-Phe-MCA
[11] = biological target: Suc-Ala-Pro-Ala-MCA
[12] = biological target: Suc-Gly-Pro-Leu-Gly-Pro-MCA
[13] = biological target: T1, trypsin-like enzyme; assay: Effect of protease inhibitors on enzymatic activity; type: biochemical; settings: for inhibition at 10 µM: read-out: Inhibition (%) Trypsin-like protease (human)
[14] = biological target: T3, human-derived neutrophile elastase (Homo sapiens, UniProt P08246); assay: as above; type: biochemical; settings: for inhibition at 10 µM: read-out: Inhibition (%) Neutrophile elastase (human)
T3 sequence (P08246 30-267): T2 sequence (P08246 30-267)

[15] = biological target: rat mast cell-derived tryptase (rat) (UniProt P27435)
[16] = biological target: trypsin-like enzyme isolated from cough phlegm of a patient suffering from a chronic respiratory apparatus disease (human)
[17] = biological target: T1, trypsin-like enzyme; assay: Digestion of natural substrates detected by SDS-polyacrylamide gel electrophoresis; type: biochemical
[18] = tested on: rat mast cell-derived tryptase; assay: Effect of protease inhibitors on enzymatic activity; type: biochemical
[19] = pH 8.6, activity on Suc-Ala-Pro-Ala-MCA taken to be 100%
[20] = Example 5: inhibitors 10 μM, PMSF 1 mM

T1 sequence (O60235 187-418): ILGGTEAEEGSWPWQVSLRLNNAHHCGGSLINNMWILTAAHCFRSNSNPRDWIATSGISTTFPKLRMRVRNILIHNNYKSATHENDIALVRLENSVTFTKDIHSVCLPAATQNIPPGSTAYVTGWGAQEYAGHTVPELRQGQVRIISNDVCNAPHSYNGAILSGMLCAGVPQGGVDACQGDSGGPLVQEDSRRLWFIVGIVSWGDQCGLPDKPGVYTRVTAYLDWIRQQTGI
Chain of trypsin-like enzyme isolated from cough phlegm of a patient suffering from a chronic respiratory apparatus disease (O60235 187-418 limits assumed): as the sequence (O60235 187-418) above

With `Cc1cc(=O)oc2cc(NC(=O)[C@H](CCCNC(=N)N)NC(=O)CNC(=O)[C@H](CCC(N)=O)NC(=O)OC(C)(C)C)ccc12` [Boc-Gln-Gly-Arg-MCA] (Boc-Gln-Gly-Arg-{AMC}) the “Substrate digestion ratio (%) Trypsin-like enzyme pH 8.6” value [1] was 13.8%, the “Substrate digestion ratio (%) Neutrophile elastase pH 8.6” value [2, 19] was 0.2% and the “Substrate digestion ratio (%) Rat mast cell Tryptase pH 8.6” value [3] was 4.6%.
In the case of “trypsin-like enzyme isolated from cough phlegm of a patient suffering from a chronic respiratory apparatus disease”, the Substrate digestion ratio (%) [4] is reported as 52.2%, the Substrate digestion ratio (%) [5] is reported as 13.8% and the Substrate digestion ratio (%) [6] is reported as 13.1%. It also gave a Substrate digestion ratio (%) [7] of 100%, a Substrate digestion ratio (%) [8] of 3.9% and a Substrate digestion ratio (%) [9] of 74.6%. The Substrate digestion ratio (%) [10] was 0%, the Substrate digestion ratio (%) [11] was 0% and the Substrate digestion ratio (%) [12] was 0%.
`Cc1cc(=O)oc2cc(NC(=O)[C@H](CCCNC(=N)N)NC(=O)[C@H](CO)NC(=O)[C@H](Cc3ccccc3)NC(=O)OC(C)(C)C)ccc12` [Boc-Phe-Ser-Arg-MCA] (Boc-Phe-Ser-Arg-{AMC}) was tested, and the “Substrate digestion ratio (%) Trypsin-like enzyme pH 8.6” value [1] was 100%, the “Substrate digestion ratio (%) Neutrophile elastase pH 8.6” value [2, 19] was 0.4% and the “Substrate digestion ratio (%) Rat mast cell Tryptase pH 8.6” value [3] was 100%.
For `O=S(=O)(F)Cc1ccccc1` [PMSF, phenylmethylsulfonyl fluoride], the “Inhibition of trypsin-like enzyme (in words)” value (shortened to “Inhibition … (in words)”) [13] was “inhibited”, the “Inhibition (%) Trypsin-like protease (human)” value ([13]; 1000 µM) was 100% and the “Inhibition (%) Neutrophile elastase (human)” value ([14]; 1000 µM) was 93.6%.
`Cc1cc(=O)oc2cc(NC(=O)[C@H](C)NC(=O)[C@@H]3CCCN3C(=O)[C@H](C)NC(=O)CCC(=O)O)ccc12` [Suc-Ala-Pro-Ala-MCA] (Suc-Ala-Pro-Ala-{AMC}) was tested, and the “Substrate digestion ratio (%) Trypsin-like enzyme pH 8.6” value [1] was 0% and the “Substrate digestion ratio (%) Neutrophile elastase pH 8.6” value [2, 19] was 100%.
With `Cc1cc(=O)oc2cc(NC(=O)[C@H](Cc3ccccc3)NC(=O)[C@@H]3CCCN3C(=O)[C@H](C)NC(=O)[C@H](C)NC(=O)CCC(=O)O)ccc12` [Suc-Ala-Ala-Pro-Phe-MCA] (Suc-AAPF-{AMC}) the “Substrate digestion ratio (%) Trypsin-like enzyme pH 8.6” value [1] was 0%, the “Substrate digestion ratio (%) Neutrophile elastase pH 8.6” value [2] was 0.1% and the “Substrate digestion ratio (%) Rat mast cell Tryptase pH 8.6” value [3] was 2.0%.
α1-antitrypsin was tested, and the Inhibition (%) [15] was 66.3% and the Inhibition (%) [16] was 23.5%.
substance P was tested, and the “Digestion of natural substrate by trypsin-like enzyme” value (shortened to “Digestion of natural substrate”) [17] was “not digested; also recorded: does not digest”.
For `CC(C)C[C@H](NC(=O)[C@@H](O)[C@H](N)Cc1ccccc1)C(=O)O` [Bestatin, bestatin], the “Inhibition … (in words)” value [13, 20] was “not inhibited”, the inhibition at 10 µM ([13]; inhibitor 10 μM) was 0% and the inhibition at 10 µM ([14]; inhibitor 10 μM) was 15.2%. The “Inhibition (%) Tryptase (derived from rat mast cell)” value (from here on “Inhibition (%) Tryptase”) ([18]; inhibitor 10 μM) was 23.4%.
With elastinol the “Inhibition … (in words)” value [13, 20] was “not inhibited”, the “Inhibition (%) Trypsin-like protease (human)” value ([13]; inhibitor 10 μM) was 0% and the “Inhibition (%) Neutrophile elastase (human)” value ([14]; inhibitor 10 μM) was 0%. The “Inhibition (%) Tryptase” value ([18]; inhibitor 10 μM) was 53.0%.
For vasoactive intestinal peptide [VIP], the “Digestion of natural substrate” value [17] was “specifically digested; also recorded: digests”.
In the case of fibrinogen, the “Digestion of natural substrate” value [17] is reported as “specifically digested; also recorded: digests”.
`CC(C)C[C@@H](N)[C@H](O)C(=O)N[C@H](C(=O)N[C@H](C(=O)N[C@@H](CC(=O)O)C(=O)O)C(C)C)C(C)C` [Amastatin, amastatin] was tested, and the “Inhibition … (in words)” value [13, 20] was “not inhibited”, the inhibition at 10 µM ([13]; inhibitor 10 μM) was 0% and the inhibition at 10 µM ([14]; inhibitor 10 μM) was 67.6%. The “Inhibition (%) Tryptase” value ([18]; inhibitor 10 μM) was 6.6%.
In the case of “human neutrophile elastase (from UniProt P08246) (enzyme)”, the Substrate digestion ratio (%) [4] is reported as 0.3%, the Substrate digestion ratio (%) [5] is reported as 0.2% and the Substrate digestion ratio (%) [6] is reported as 0.3%. For the same compound, the Substrate digestion ratio (%) [7] was 0.4%, the Substrate digestion ratio (%) [8] was 0.1% and the Substrate digestion ratio (%) [9] was 0.2%. The Substrate digestion ratio (%) [10] was 0.1%, the Substrate digestion ratio (%) [11] was 100% and the Substrate digestion ratio (%) [12] was 0%.
For `CC(C)[C@H](NC(=O)[C@H](CCCNC(=N)N)NC(=O)N[C@@H](Cc1ccccc1)C(=O)O)C(=O)N[C@H](C=O)CCCNC(=N)N` [Antipain, antipain] ({Phe-CO}-Arg-Val-Arg-aldehyde), the “Inhibition … (in words)” value [13] was “inhibited”, the inhibition at 10 µM [13] was 78.1% and the inhibition at 10 µM [14] was 11.1%. For the same compound, the “Inhibition (%) Tryptase” value ([18]; 10 µM) was 98.2%.
With `Cc1cc(=O)oc2cc(NC(=O)[C@H](CCCNC(=N)N)NC(=O)[C@@H]3CCCN3C(=O)[C@@H](NC(=O)OC(C)(C)C)C(C)C)ccc12` [Boc-Val-Pro-Arg-MCA] (Boc-Val-Pro-Arg-{AMC}) the “Substrate digestion ratio (%) Trypsin-like enzyme pH 8.6” value [1] was 74.6%, the “Substrate digestion ratio (%) Neutrophile elastase pH 8.6” value [2, 19] was 0.2% and the “Substrate digestion ratio (%) Rat mast cell Tryptase pH 8.6” value [3] was 50.6%.
“rat mast cell-derived tryptase (from UniProt P27435) (enzyme)” was tested, and the Substrate digestion ratio (%) [5] was 4.6%, the Substrate digestion ratio (%) [6] was 149% and the Substrate digestion ratio (%) [7] was 100%. For the same compound, the Substrate digestion ratio (%) [8] was 6.1%, the Substrate digestion ratio (%) [9] was 50.6% and the Substrate digestion ratio (%) [10] was 2%.
For `CC(=O)N[C@@H](CC(C)C)C(=O)N[C@@H](CC(C)C)C(=O)N[C@H](C=O)CCCNC(=N)N` [Leupeptin, leupeptin], the “Inhibition … (in words)” value [13] was “inhibited”, the inhibition at 10 µM [13] was 82.5% and the inhibition at 10 µM [14] was 0%. For the same compound, the “Inhibition (%) Tryptase” value ([18]; 10 µM) was 100%.
In the case of `Cc1cc(=O)oc2cc(NC(=O)[C@H](CCCNC(=N)N)NC(=O)[C@H](C)NC(=O)[C@H](CCC(N)=O)NC(=O)OC(C)(C)C)ccc12` [Boc-Gln-Ala-Arg-MCA] (Boc-Gln-Ala-Arg-{AMC}), the “Substrate digestion ratio (%) Trypsin-like enzyme pH 8.6” value [1] is reported as 52.2% and the “Substrate digestion ratio (%) Neutrophile elastase pH 8.6” value [2, 19] is reported as 0.3%.
With `Cc1cc(=O)oc2cc(NC(=O)[C@H](CCCCN)NC(=O)[C@H](CC(C)C)NC(=O)[C@@H](NC(=O)OC(C)(C)C)C(C)C)ccc12` [Boc-Val-Leu-Lys-MCA] (Boc-Val-Leu-Lys-{AMC}) the “Substrate digestion ratio (%) Trypsin-like enzyme pH 8.6” value [1] was 3.9%, the “Substrate digestion ratio (%) Neutrophile elastase pH 8.6” value [2, 19] was 0.1% and the “Substrate digestion ratio (%) Rat mast cell Tryptase pH 8.6” value [3] was 6.1%.
With `Cc1cc(=O)oc2cc(NC(=O)[C@@H](N)CC(C)C)ccc12` [Leu-MCA] the “Substrate digestion ratio (%) Trypsin-like enzyme pH 8.6” value [1] was 0% and the “Substrate digestion ratio (%) Neutrophile elastase pH 8.6” value [2, 19] was 0.2%.
With “α-1-antitrypsin: a blood protease inhibitor; also used as natural substrate” the “Digestion of natural substrate” value [17] was “does not digest”, the “Digestion of natural substrate” value ([17]; listed as al-antitrypsin) was “not digested” and the “Inhibition … (in words)” value [13, 20] was “inhibited”. For the same compound, the “Inhibition (%) Trypsin-like protease (human)” value ([13]; inhibitor 10 μM) was 23.5% and the “Inhibition (%) Tryptase” value ([18]; 10 µM) was 66.3%.
For `CC[C@H](C)[C@H](NC(=O)OC(C)(C)C)C(=O)N[C@@H](CCC(N)=O)C(=O)NCC(=O)N[C@@H](CCCNC(=N)N)C(=O)Nc1ccc2c(C)cc(=O)oc2c1` [Boc-Ile-Gln-Gly-Arg-MCA] (Boc-IQGR-{AMC}), the “Substrate digestion ratio (%) Trypsin-like enzyme pH 8.6” value [1] was 13.1%, the “Substrate digestion ratio (%) Neutrophile elastase pH 8.6” value [2, 19] was 0.3% and the “Substrate digestion ratio (%) Rat mast cell Tryptase pH 8.6” value [3] was 149.0%.
For `Cc1cc(=O)oc2cc(NC(=O)[C@@H]3CCCN3C(=O)CNC(=O)[C@H](CC(C)C)NC(=O)[C@@H]3CCCN3C(=O)CNC(=O)CCC(=O)O)ccc12` [Suc-Gly-Pro-Leu-Gly-Pro-MCA] (Suc-GPLGP-{AMC}), the “Substrate digestion ratio (%) Trypsin-like enzyme pH 8.6” value [1] was 0% and the “Substrate digestion ratio (%) Neutrophile elastase pH 8.6” value [2, 19] was 0%.
